# Source: the supplement of paper PMC10307832
# Experiments:
# Assay in all cases: relative viability (nuclei count vs DMSO), 5 days (fraction); higher = more cells survive
# Dactolisib + Alpelisib = compound: Cn1c(=O)n(-c2ccc(C(C)(C)C#N)cc2)c2c3cc(-c4cnc5ccccc5c4)ccc3ncc21 [Dactolisib] + Cc1nc(NC(=O)N2CCC[C@H]2C(N)=O)sc1-c1ccnc(C(C)(C)C(F)(F)F)c1 [Alpelisib] (partner 2 µM)
# Method in brief: (§1)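 Relative viability was taken as the ratio of nuclei in treated wells to nuclei in vehicle wells. Lung cancer cell lines in 1536-well plates received compounds by pin tool one day after seeding, either one drug alone or a fixed anchor-drug dose plus five library-drug doses (not always all listed) in √10 steps. Nuclei were counted on 4× images after 5 days of treatment, and values are medians of duplicate plates.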
# AZ505 + Linsitinib = compound: C1CCC(CC1)N(CCNCCC2=C3C(=C(C=C2)O)NC(=O)CO3)C(=O)CCNCCC4=CC(=C(C=C4)Cl)Cl [AZ505] + C[C@]1(O)C[C@@H](c2nc(-c3ccc4ccc(-c5ccccc5)nc4c3)c3c(N)nccn32)C1 [Linsitinib] (partner 1 µM)
# Method in brief: as §1
# AZ505 + Phenformin = compound: C1CCC(CC1)N(CCNCCC2=C3C(=C(C=C2)O)NC(=O)CO3)C(=O)CCNCCC4=CC(=C(C=C4)Cl)Cl [AZ505] + N=C(N)NC(=N)NCCc1ccccc1 [Phenformin] (partner 250 µM)
# Method in brief: as §1
# AZ505 + Vorinostat = compound: C1CCC(CC1)N(CCNCCC2=C3C(=C(C=C2)O)NC(=O)CO3)C(=O)CCNCCC4=CC(=C(C=C4)Cl)Cl [AZ505] + O=C(CCCCCCC(=O)Nc1ccccc1)NO [Vorinostat] (partner 1 µM)
# Method in brief: as §1
cell line,measurement,setting,value
UMC-11,relative viability,Dactolisib + Alpelisib; first compound 0.002 µM,0.961
same,relative viability,Dactolisib + Alpelisib; first compound 0.006325 µM,0.852
same,relative viability,Dactolisib + Alpelisib; first compound 0.02 µM,0.63
same,relative viability,Dactolisib + Alpelisib; first compound 0.06325 µM,0.266
same,relative viability,Dactolisib + Alpelisib; first compound 0.2 µM,0.243
same,relative viability,AZ505 + Linsitinib; first compound 0.08 µM,0.971
same,relative viability,AZ505 + Linsitinib; first compound 0.253 µM,1.06
same,relative viability,AZ505 + Linsitinib; first compound 0.8 µM,1.01
same,relative viability,AZ505 + Linsitinib; first compound 2.53 µM,0.951
same,relative viability,AZ505 + Linsitinib; first compound 8 µM,1.05
same,relative viability,AZ505 + Phenformin; first compound 0.08 µM,0.305
same,relative viability,AZ505 + Phenformin; first compound 0.253 µM,0.323
same,relative viability,AZ505 + Phenformin; first compound 0.8 µM,0.328
same,relative viability,AZ505 + Phenformin; first compound 2.53 µM,0.328
same,relative viability,AZ505 + Phenformin; first compound 8 µM,0.325
same,relative viability,AZ505 + Vorinostat; first compound 0.08 µM,0.371
same,relative viability,AZ505 + Vorinostat; first compound 0.253 µM,0.433
same,relative viability,AZ505 + Vorinostat; first compound 0.8 µM,0.367
same,relative viability,AZ505 + Vorinostat; first compound 2.53 µM,0.434
same,relative viability,AZ505 + Vorinostat; first compound 8 µM,0.397
